The values below come from ChEMBL document CHEMBL1926563, “Synthesis, antimicrobial, antimycobacterial and structure-activity relationship of substituted pyrazolo-, isoxazolo-, pyrimido- and mercaptopyrimidocyclohepta[b]indoles” (2012).

Assay [1] concerns Mycobacterium tuberculosis. Nature of the assay: Antimycobacterial activity against Mycobacterium tuberculosis H37Rv at 1.5 to 50 ug/ml after 7 days by resazurin microtiter plate assay. In kind it is functional, organism-based. (Resazurin is reduced to fluorescent resorufin, in cell work by metabolically active cells.)
The test system of assay [2] is Staphylococcus aureus. In words: Antibacterial activity against Staphylococcus aureus NCIM 5021 assessed as zone of inhibition at 100 ug/disc after 24 hrs by disk diffusion method. The following applies: NCIM 5021, 24 h, read-out: DIZ. In kind it is functional. For orientation: A growth-free zone around the sample is the usual read-out of agar diffusion tests.
In assay [3] the test system is Staphylococcus aureus. Nature of the assay: Antibacterial activity against Staphylococcus aureus NCIM 5021 assessed as zone of inhibition at 200 ug/disc after 24 hrs by disk diffusion method. Type of assay: functional. The following applies: NCIM 5021, 24 h, read-out: DIZ.
For assay [4], the system named is Bacillus subtilis. Nature of the assay: Antibacterial activity against Bacillus subtilis NCIM 2063 assessed as zone of inhibition at 100 ug/disc after 24 hrs by disk diffusion method. Type of assay: functional. The conditions noted are these: NCIM 2063, 24 h, read-out: DIZ.
The test system of assay [5] is Bacillus subtilis. Nature of the assay: Antibacterial activity against Bacillus subtilis NCIM 2063 assessed as zone of inhibition at 200 ug/disc after 24 hrs by disk diffusion method. Type of assay: functional. The conditions noted are these: NCIM 2063, 24 h, read-out: DIZ.
Assay [6] relates to Klebsiella pneumoniae. Nature of the assay: Antibacterial activity against Klebsiella pneumoniae NCIM 2957 assessed as zone of inhibition at 100 ug/disc after 24 hrs by disk diffusion method. Type of assay: functional. The following applies: NCIM 2957, 24 h, read-out: DIZ.
The subject of assay [7] is Klebsiella pneumoniae. Nature of the assay: Antibacterial activity against Klebsiella pneumoniae NCIM 2957 assessed as zone of inhibition at 200 ug/disc after 24 hrs by disk diffusion method. Type of assay: functional. The following applies: NCIM 2957, 24 h, read-out: DIZ.
Assay [8] concerns Proteus vulgaris. Nature of the assay: Antibacterial activity against Proteus vulgaris NCIM 2027 assessed as zone of inhibition at 100 ug/disc after 24 hrs by disk diffusion method. The conditions noted are these: NCIM 2027, 24 h, read-out: DIZ. Type of assay: functional.
The test system of assay [9] is Proteus vulgaris. Nature of the assay: Antibacterial activity against Proteus vulgaris NCIM 2027 assessed as zone of inhibition at 200 ug/disc after 24 hrs by disk diffusion method. Type of assay: functional. The conditions noted are these: NCIM 2027, 24 h, read-out: DIZ.
The subject of assay [10] is Fusarium solani. In words: Antifungal activity against Fusarium solani NCIM 1330 assessed as zone of inhibition at 100 ug/disc after 48 hrs by disk diffusion method. In kind it is functional. The conditions noted are these: NCIM 1330, 48 h, read-out: DIZ.
Assay [11] has as its system Fusarium solani. Nature of the assay: Antifungal activity against Fusarium solani NCIM 1330 assessed as zone of inhibition at 200 ug/disc after 48 hrs by disk diffusion method. The following applies: NCIM 1330, 48 h, read-out: DIZ. In kind it is functional.
In assay [12] the test system is Curvularia lunata. Nature of the assay: Antifungal activity against Curvularia lunata NCIM 716 assessed as zone of inhibition at 100 ug/disc after 48 hrs by disk diffusion method. Type of assay: functional. The conditions noted are these: NCIM 716, 48 h, read-out: DIZ.
Assay [13] concerns Curvularia lunata. Nature of the assay: Antifungal activity against Curvularia lunata NCIM 716 assessed as zone of inhibition at 200 ug/disc after 48 hrs by disk diffusion method. In kind it is functional. The following applies: NCIM 716, 48 h, read-out: DIZ.
Assay [14] concerns Aspergillus niger. Nature of the assay: Antifungal activity against Aspergillus niger NCIM 596 assessed as zone of inhibition at 100 ug/disc after 48 hrs by disk diffusion method. Type of assay: functional. The conditions noted are these: NCIM 596, 48 h, read-out: DIZ.
Assay [15] concerns Aspergillus niger. In words: Antifungal activity against Aspergillus niger NCIM 596 assessed as zone of inhibition at 200 ug/disc after 48 hrs by disk diffusion method. Type of assay: functional. The conditions noted are these: NCIM 596, 48 h, read-out: DIZ.
In assay [16] the test system is Klebsiella pneumoniae. Nature of the assay: Antibacterial activity against Klebsiella pneumoniae NCIM 2957 after 24 hrs by disk diffusion method. In kind it is functional. The conditions noted are these: NCIM 2957, 24 h.
For assay [17], the system named is Proteus vulgaris. In words: Antibacterial activity against Proteus vulgaris NCIM 2027 after 24 hrs by disk diffusion method. The following applies: NCIM 2027, 24 h. Type of assay: functional.
In assay [18] the test system is Fusarium solani. In words: Antifungal activity against Fusarium solani NCIM 1330 after 48 hrs by disk diffusion method. Type of assay: functional. The following applies: NCIM 1330, 48 h.
Assay [19] has as its system Curvularia lunata. In words: Antifungal activity against Curvularia lunata NCIM 716 after 48 hrs by disk diffusion method. Type of assay: functional. The conditions noted are these: NCIM 716, 48 h.
Assay [20] has as its system Aspergillus niger. Nature of the assay: Antifungal activity against Aspergillus niger NCIM 596 after 48 hrs by disk diffusion method. Type of assay: functional. The conditions noted are these: NCIM 596, 48 h.
In assay [21] the test system is Mycobacterium tuberculosis. In words: Antimycobacterial activity against Mycobacterium tuberculosis H37Rv after 7 days by resazurin microtiter plate assay. In kind it is functional. The following applies: 168 h.
For assay [22], the system named is Staphylococcus aureus. In words: Antibacterial activity against Staphylococcus aureus NCIM 5021 after 24 hrs by disk diffusion method. In kind it is functional. The following applies: NCIM 5021, 24 h.
The subject of assay [23] is Bacillus subtilis. In words: Antibacterial activity against Bacillus subtilis NCIM 2063 after 24 hrs by disk diffusion method. Type of assay: functional. The conditions noted are these: NCIM 2063, 24 h.

The structures appear in SMILES notation. Converted amounts (≈) assume the structure as drawn. The source made the active and inactive calls. The rule behind the calls is not given here.

The MIC is the least concentration at which growth counts as inhibited. In the case of `c1ccc2c3c([nH]c2c1)-c1nocc1CCC3`, the MIC result in assay [1] is “inactive”. Moreover, the zone of inhibition at 100 µg/disc in the assay with Staphylococcus aureus [2] turned out to be 26 mm; in the assay with Bacillus subtilis [4], 26 mm; with Klebsiella pneumoniae [6], 25 mm; in the assay with Proteus vulgaris [8], 24 mm; in the assay with Fusarium solani [10] it was 28 mm; in the assay with Curvularia lunata [12] it was 28 mm. The zone of inhibition at 100 µg/disc in the assay with Aspergillus niger [14] is 26 mm. Also, the zone of inhibition at 200 µg/disc came out at 27 mm in the assay on Staphylococcus aureus [3]; 29 mm with Bacillus subtilis [5]; 27 mm in the assay on Klebsiella pneumoniae [7]; 25 mm in the assay on Proteus vulgaris [9]; 31 mm with Fusarium solani [11]; 30 mm in the assay on Curvularia lunata [13]. In addition, the zone of inhibition at 200 µg/disc with Aspergillus niger [15] is 29 mm.
Consider `Clc1ccc2[nH]c3c(c2c1)CCCc1conc1-3`, for which the MIC against Klebsiella pneumoniae [16] was determined as 100 mg/L (≈ 387 µM); against Proteus vulgaris [17], 200 mg/L (≈ 773 µM); against Fusarium solani [18], 100 mg/L (≈ 387 µM); against Curvularia lunata [19], 100 mg/L (≈ 387 µM); against Aspergillus niger [20], 100 mg/L (≈ 387 µM); in [21] it was 3.12 mg/L (≈ 12.1 µM). For the same compound, the MIC with Staphylococcus aureus [22] and against Bacillus subtilis [23] was 50 mg/L (≈ 193 µM) in each case. In addition, the zone of inhibition at 100 µg/disc was found to be 32 mm in the assay on Staphylococcus aureus [2]; 31 mm in the assay on Bacillus subtilis [4]; 26 mm in the assay with Klebsiella pneumoniae [6]; 28 mm in the assay with Proteus vulgaris [8]; 33 mm in the assay on Fusarium solani [10]; 31 mm in the assay with Curvularia lunata [12]. Also, the zone of inhibition at 100 µg/disc with Aspergillus niger [14] stood at 29 mm. Also, the zone of inhibition at 200 µg/disc with Staphylococcus aureus [3] was 33 mm; in the assay with Bacillus subtilis [5], 34 mm; with Klebsiella pneumoniae [7], 29 mm; in the assay with Proteus vulgaris [9] it was 30 mm; in the assay with Fusarium solani [11], 35 mm; in the assay on Curvularia lunata [13], 33 mm. Moreover, in the assay with Aspergillus niger [15], the zone of inhibition at 200 µg/disc came to 32 mm.
Regarding `O=C(N[C@H](CO)[C@H](O)c1ccc([N+](=O)[O-])cc1)C(Cl)Cl` [CHLORAMPHENICOL], the MIC amounted to 12.5 mg/L (≈ 38.7 µM) against Klebsiella pneumoniae [16], 12.5 mg/L (≈ 38.7 µM) in the assay on Proteus vulgaris [17], 6.25 mg/L (≈ 19.3 µM) against Staphylococcus aureus [22] and 6.25 mg/L (≈ 19.3 µM) in the assay on Bacillus subtilis [23]. The zone of inhibition at 100 µg/disc turned out to be 35 mm in the assay on Staphylococcus aureus [2], 38 mm in the assay on Bacillus subtilis [4], 37 mm in the assay with Klebsiella pneumoniae [6] and 42 mm in the assay with Proteus vulgaris [8]. For the same compound, the zone of inhibition at 200 µg/disc in the assay with Staphylococcus aureus [3] was found to be 41 mm; in the assay on Bacillus subtilis [5], 43 mm; in the assay on Klebsiella pneumoniae [7] it was 42 mm; in the assay on Proteus vulgaris [9] it was 44 mm.
With `Oc1ncc2c(n1)-c1[nH]c3ccccc3c1CCC2`, in [1], the MIC result was “inactive”. In addition, the zone of inhibition at 100 µg/disc was determined as 25 mm in the assay with Staphylococcus aureus [2]; 27 mm with Bacillus subtilis [4]; 22 mm in the assay on Klebsiella pneumoniae [6]; 21 mm in the assay on Proteus vulgaris [8]; 13 mm with Fusarium solani [10]; 16 mm with Curvularia lunata [12]. In addition, in the assay on Aspergillus niger [14], the zone of inhibition at 100 µg/disc amounted to 11 mm. For the same compound, the zone of inhibition at 200 µg/disc in the assay with Staphylococcus aureus [3] came to 28 mm; in the assay with Bacillus subtilis [5], 29 mm; with Klebsiella pneumoniae [7] it was 24 mm; with Proteus vulgaris [9], 23 mm; with Fusarium solani [11], 16 mm; in the assay with Curvularia lunata [13], 18 mm. Further, the zone of inhibition at 200 µg/disc in the assay on Aspergillus niger [15] amounted to 15 mm.
